Experimental findings from US10316035B2, “Triazolopyridine inhibitors of myeloperoxidase” (BRISTOL-MYERS SQUIBB COMPANY, priority 2015, dated 2019) are described below.

Holding throughout (type): biochemical
In assay [1] the target is T1, EPX (eosinophil peroxidase) (Homo sapiens, UniProt P11678).
T1 construct: purchased Lee Biosolutions 342-60
T1 sequence (P11678 140-715): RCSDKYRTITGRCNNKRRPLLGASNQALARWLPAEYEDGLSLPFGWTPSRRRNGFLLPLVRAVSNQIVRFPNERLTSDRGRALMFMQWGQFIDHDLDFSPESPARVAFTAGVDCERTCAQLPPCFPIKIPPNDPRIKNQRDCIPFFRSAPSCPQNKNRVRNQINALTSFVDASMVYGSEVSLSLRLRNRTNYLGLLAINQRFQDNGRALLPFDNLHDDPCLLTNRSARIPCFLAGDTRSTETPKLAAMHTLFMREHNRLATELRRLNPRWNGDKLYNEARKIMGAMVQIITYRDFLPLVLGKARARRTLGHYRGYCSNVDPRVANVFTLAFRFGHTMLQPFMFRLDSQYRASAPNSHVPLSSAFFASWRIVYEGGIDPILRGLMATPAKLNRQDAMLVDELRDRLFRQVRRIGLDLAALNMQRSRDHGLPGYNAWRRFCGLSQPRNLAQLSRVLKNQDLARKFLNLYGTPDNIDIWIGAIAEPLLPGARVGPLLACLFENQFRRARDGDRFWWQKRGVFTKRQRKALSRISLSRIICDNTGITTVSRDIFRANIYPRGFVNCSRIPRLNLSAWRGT
The assay is described as follows: EPX bromination assay. As for the experimental part:
(§1) [formula] where A=minimal Y value (activity level of inhibited sample), B=maximal Y value (activity level of uninhibited sample), C=Log IC50, D=Hill Slope, x=concentration of inhibitor. EPX Bromination Assay
EPX bromination activity was measured in 100 mM KPi (pH 7.4) by monitoring the H2O2 catalyzed formation of 3-bromo tyrosine from tyrosine and potassium bromide. A 50 μl mixture of 0.6 μM EPX (Lee Biosolutions Cat#342-60) was added to 100 nL inhibitor in 100% DMSO in a 384 well REMP plate. Enzyme and compound were preincubated for ten minutes at room temperature.
After the ten minute preincubation of enzyme and inhibitor, 25 μL of a mixture containing 400 μM tyrosine and 1200 μM potassium bromide was added to the plate containing enzyme and inhibitor, followed by the addition of 25 μl of 20 μM H2O2. The reaction was allowed to proceed for 15 minutes, at which time it was quenched with 10 μL of 20% TCA. The final concentrations of all components were 0.3 μM EPX, 100 μM tyrosine, […], 5 μM H2O2, 0.1% DMSO, 2.0% TCA.
IC50 values were determined by determining the peak areas of 3-bromotyrosine present at the end of the 15 minute reaction and fitting the data to:
[formula] where A=minimal Y value (activity level of inhibited sample), B=maximal Y value (activity level of uninhibited sample), C=Log IC50, D=Hill Slope, x=concentration of inhibitor.
Reversed-phase analysis was performed on a Waters Acquity Ultra Performance LC system using an Acquity UPLC BEH C18 […], 2.1×50 mm analytical column. The column was maintained at 60° C. Samples were eluted using a gradient of 0%-100% B over 2.5 minutes, followed by equilibration with 100% A for 1 minute where A consisted of 0.1% TFA and B consisted of 90% MeOH/0.1% TFA at a flow rate of 0.6 mL/min. The retention time of 3-bromo tyrosine was 1.22 min.

Assay [2] addresses T2, myeloperoxidase (MPO) (Homo sapiens, UniProt P05164).
T2 sequence (P05164 49-745): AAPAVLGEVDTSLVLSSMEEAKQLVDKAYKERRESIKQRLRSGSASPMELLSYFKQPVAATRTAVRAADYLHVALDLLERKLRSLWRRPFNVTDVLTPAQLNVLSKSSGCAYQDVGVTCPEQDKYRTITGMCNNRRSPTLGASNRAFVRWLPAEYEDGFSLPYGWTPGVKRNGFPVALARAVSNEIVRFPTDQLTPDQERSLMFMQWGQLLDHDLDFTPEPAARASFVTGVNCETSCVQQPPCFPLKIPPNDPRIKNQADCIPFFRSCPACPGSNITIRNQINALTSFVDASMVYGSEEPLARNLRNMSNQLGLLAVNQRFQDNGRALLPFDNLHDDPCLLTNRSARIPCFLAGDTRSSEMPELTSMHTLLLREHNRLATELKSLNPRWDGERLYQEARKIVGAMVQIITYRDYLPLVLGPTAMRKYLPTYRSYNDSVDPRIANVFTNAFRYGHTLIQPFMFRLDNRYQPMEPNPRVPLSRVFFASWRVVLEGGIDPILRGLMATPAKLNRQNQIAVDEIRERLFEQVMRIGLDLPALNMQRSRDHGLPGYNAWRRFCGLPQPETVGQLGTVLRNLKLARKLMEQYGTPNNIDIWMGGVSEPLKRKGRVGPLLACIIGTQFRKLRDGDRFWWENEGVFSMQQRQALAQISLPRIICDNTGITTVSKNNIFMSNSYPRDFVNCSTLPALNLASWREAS
Nature of the assay: MPO peroxidation assay (Amplex Red assay). The gist of the method: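 MPO (200 pM) with 40 nM H2O2 was preincubated 10 min at room temperature with inhibitor in 100 mM KPi pH 7.4. A mix of Amplex Red (200 μM) and H2O2 (10 mM) was then added and resorufin fluorescence read kinetically for 15 min. Slopes over 180–540 s gave % inhibition and IC50 via a four-parameter Hill fit.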

Assay [3] addresses T2, myeloperoxidase (MPO). Nature of the assay: MPO chlorination assay (APF assay). As for the experimental part: [formula] where A=minimal Y value (activity level of inhibited sample), B=maximal Y value (activity level of uninhibited sample), C=Log IC50, D=Hill Slope, x=concentration of inhibitor. MPO Chlorination Assay (APF Assay)
MPO chlorination activity was measured in 100 mM KPi (pH 7.4) by utilizing the non-fluorescent reagent Aminophenyl fluorescein (APF, Invitrogen catalog #A36003). APF is cleaved by (—OCl) to yield the fluorescent compound fluorescein. Reactions were carried out in 50 μL total volume by adding a 25 μL mixture of 200 pM myeloperoxidase and 120 mM NaCl to 100 nL inhibitor in 100% DMSO in a 384 well, non-binding surface clear bottom plate (CORNING® #3655). Enzyme, inhibitor, and chloride were preincubated for ten minutes at room temperature.
After the ten minute preincubation, 25 μL of an APF mixture containing […], 120 mM NaCl and 10 μM H2O2 was added to the plate using the internal dispensing system of a Hammatsu FDSS 6000. Kinetic determinations were carried out immediately on the FDSS 6000 (3 minute kinetic read, 1 read every second, ex: 485 nm, em: 535 nm). IC50 values for inhibitors were calculated by taking the slope of the linear portion of the kinetic measurement (20 seconds to ˜80-120 secs).
IC50 values were calculated by determining the slope of the linear portion of the kinetic trace ([…]), and using that calculated slope to determine % inhibition occurring at each concentration of inhibitor using the following equation:
as §1

Where [4] appears, read: MPO peroxidation, potency range class, read-out: Amplex Red IC50.
The mark [5] stands for this setting: MPO chlorination, potency range class, read-out: APF IC50.

Structures are written as SMILES. pIC50: −log10 of the molar value.

Take `Nc1cc(OCc2cccc(OCc3ccccc3)c2)c2nn[nH]c2n1` [Example 2, 7-(3-(Benzyloxy)benzyloxy)-3H-[1,2,3]triazolo[4,5-b]pyridin-5-amine]: the results for the pIC50 in assay [1] and in assay [2] (setting [4]) were 7.10 and 7.00 to 9.00, respectively.
For `Nc1cc(OCc2cccc(OC3CC3)c2)c2nn[nH]c2n1` [Example 6, 7-(3-Cyclopropoxybenzyloxy)-3H-[1,2,3]triazolo[4,5-b]pyridin-5-amine], in that order: 8.00 and 7.00 to 9.00.
For `Nc1cc(OCc2cccc(-c3ncccn3)c2)c2nn[nH]c2n1` [Example 8, 7-(3-(Pyrimidin-2-yl)benzyloxy)-3H-[1,2,3]triazolo[4,5-b]pyridin-5-amine], in that order: 7.40 and 7.00 to 9.00.
As for `Nc1cc(OCc2c(F)cccc2F)c2nn[nH]c2n1` [Example 54, 7-(2,6-Difluorobenzyloxy)-3H-[1,2,3]triazolo[4,5-b]pyridin-5-amine], the pIC50 (usually the negative decadic logarithm of the IC50, by convention in mol/L) in assay [1] was 8.00; in assay [2] (setting [4]), 7.00 to 9.00.
Regarding `Nc1cc(OCc2c(Cl)cccc2Cl)c2nn[nH]c2n1` [Example 234, 7-((2,6-Dichlorobenzyl)oxy)-3H-[1,2,3]triazolo[4,5-b]pyridin-5-amine], the pIC50 in assay [2] and in assay [3] was 7.00 to 9.00 each time.
As to `COc1cc(Br)ccc1COc1cc(N)nc2[nH]nnc12` [Example 242, 7-((4-Bromo-2-methoxybenzyl)oxy)-3H-[1,2,3]triazolo[4,5-b]pyridin-5-amine], the pIC50 in assay [2] (setting [4]) and in assay [3] (setting [5]) was 7.00 to 9.00 throughout.
Regarding `NC(=O)c1ccccc1COc1cc(N)nc2[nH]nnc12` [Example 254, 2-(((5-Amino-3H-[1,2,3]triazolo[4,5-b]pyridin-7-yl)oxy)methyl)benzamide], the pIC50 in assay [2] (setting [4]) and in assay [3] (setting [5]) was 5.00 to 6.00 throughout.
For the molecule `Nc1cc(OCc2ccc(-n3cc(C(F)(F)F)cn3)cc2OC(F)(F)F)c2nn[nH]c2n1` [Example 271, 7-((2-(trifluoromethoxy)-4-(4-(trifluoromethyl)-1H-pyrazol-1-yl)benzyl)oxy)-3H-[1,2,3]triazolo[4,5-b]pyridin-5-amine], the figures for the pIC50 in assay [2] (setting [4]) and in assay [3] (setting [5]) were 7.00 to 9.00 and 5.00 to 6.00, respectively.
For `Cc1nccn1-c1ccc(COc2cc(N)nc3[nH]nnc23)c(C#N)c1` [Example 277, 2-(((5-amino-3H-[1,2,3]triazolo[4,5-b]pyridin-7-yl)oxy)methyl)-5-(2-methyl-1H-imidazol-1-yl)benzonitrile], in that order: 6.00 to 7.00 and 5.00 to 6.00.
For `CC(C)n1cc(-c2ccc(COc3cc(N)nc4[nH]nnc34)c(OC(F)(F)F)c2)cn1` [Example 305, 7-((4-(1-isopropyl-1H-pyrazol-4-yl)-2-(trifluoromethoxy)benzyl)oxy)-3H-[1,2,3] triazolo[4,5-b]pyridin-5-amine], in that order: 7.00 to 9.00 and 6.00 to 7.00.
On to `COc1ncc(-c2cc(F)c(COc3cc(N)nc4[nH]nnc34)c(F)c2)cn1` [Example 334, 7-((2,6-difluoro-4-(2-methoxypyrimidin-5-yl)benzyl)oxy)-3H-[1,2,3]triazolo[4,5-b] pyridin-5-amine], for which the pIC50 in assay [2] (setting [4]) is 7.00 to 9.00; in assay [3] (setting [5]), 6.00 to 7.00.
For `Nc1cc(OCc2c(F)cc(-c3ccc(N4CCNCC4)nc3)cc2F)c2nn[nH]c2n1` [Example 336, 7-((2,6-difluoro-4-(6-(piperazin-1-yl)pyridin-3-yl)benzyl)oxy)-3H-[1,2,3]triazolo[4,5-b] pyridin-5-amine], in that order: 7.00 to 9.00 and 7.00 to 9.00.
In the case of `Nc1cc(OCc2c(F)ccc(-c3cncc(C(=O)N4CCOCC4)c3)c2Cl)c2nn[nH]c2n1` [Example 345, (5-(3-(((5-amino-3H-[1,2,3]triazolo[4,5-b]pyridin-7-yl)oxy)methyl)-2-chloro-4-fluorophenyl)pyridin-3-yl)(morpholine) methanone], the pIC50 was 6.00 to 7.00 in assay [2] (setting [4]) and 5.00 to 6.00 in assay [3] (setting [5]).
